Reference: patent publication US8658646B2, “Pyrrolopyrazine kinase inhibitors” (Hoffmann-LaRoche Inc., priority 2011, dated 2014)

Target: T1, recombinant human SYK360-635 (Homo sapiens, UniProt P43405)
T1 construct: made in house
Test: Determination of IC50 of Spleen Tyrosine Kinase (SYK) inhibition, 33P ATP filtration assay
Format: biochemical
Settings: SYK aa 360-635 0.5 nM; ATP 20 μM, peptide 5 μM, 0.1% BSA; read-out: SYK_ENZYME_FILTRATION/v1, BSA
Description: All concentrations were final in the reaction mixture and all incubations were carried at room temperature. […] SYK Assay Information Determination of IC50 of Spleen Tyrosine Kinase (SYK) Inhibition:
SYK kinase assay is a standard kinase assay adapted to a 96 well plate format. This assay is performed in 96-well format for IC50 determination with 8 samples which represented 10 half log dilutions and a 40 μL reaction volume. The assay measures the incorporation of radiolabeled ^33P γATP into an N-terminally biotinylated peptide substrate, derived from naturally occurring phosphoacceptor consensus sequence (Biotin-11aa DY*E). […] Experimental Method:
DMSO and the mixture was incubated for 10 min at RT.
The kinase reaction was initiated by the addition of 10 μL 4× substrate cocktail containing the DYE peptide substrate [0 or 5 μM], ATP [20 μM] and ^33PγATP [2 μCi/r×n]. After incubation at 30° C. for 15 min, the reaction was terminated by the transfer of 25 μL pf the reaction sample to a 96 well 0.65 μm Millipore MADVNOB membrane/plate containing 200 μL 5 mM EDTA and 20% Streptavidine coated beads in PBS.
The unbound radionucleotides were washed under vacuum with 3×250 μL 2M NaCl; 2×250 μL 2M NaCl+1% phosphoric acid; 1×250 μL H2O. After the last wash membrane/plates were transferred to an adaptor plate, heat dried for 15 min at 60° C., and 50 μL scintillation cocktail was added to each well and 4 h later the amount of radioactivity was counted in a top counter.

Structure (SMILES) | IC50
Cn1nc(-c2cnc3[nH]cc(C(=O)N[C@@H]4CCC[C@H](N)C4)c3n2)c2ccc(Cl)cc21 (relative stereo) [Example I-277, 2-(6-Chloro-1-methyl-1H-indazol-3-yl)-5H-pyrrolo[2,3-b]pyrazine-7-carboxylic acid (cis-3-amino-cyclohexyl)-amide] | 40 nM
C[C@@H](NC(=O)c1c[nH]c2ncc(-c3cn(C)c4cc(Cl)ccc34)nc12)C(=O)N1CC(C#N)C1 [Example I-29, 2-(6-Chloro-1-methyl-1H-indol-3-yl)-5H-pyrrolo[2,3-b]pyrazine-7-carboxylic acid [(R)-2-(3-cyano-azetidin-1-yl)-1-methyl-2-oxo-ethyl]-amide] | 4.1 nM
CC(C)NC(=O)c1c[nH]c2ncc(-c3nn(C)c4ccc(O)cc34)nc12 [Example I-65, 2-(5-Hydroxy-1-methyl-1H-indazol-3-yl)-5H-pyrrolo[2,3-b]pyrazine-7-carboxylic acid isopropylamide] | 5.8 nM
COCC(COC)NC(=O)c1c[nH]c2ncc(-c3nn(C)c4cc(Cl)ccc34)nc12 [Example I-166, 2-(6-Chloro-1-methyl-1H-indazol-3-yl)-5H-pyrrolo[2,3-b]pyrazine-7-carboxylic acid (2-methoxy-1-methoxymethyl-ethyl)-amide] | 106 nM
CC(CC1CC1)NC(=O)c1c[nH]c2ncc(-c3nn(C)c4cc(F)ccc34)nc12 (centres unmarked) [Example I-186, 2-(6-Fluoro-1-methyl-1H-indazol-3-yl)-5H-pyrrolo[2,3-b]pyrazine-7-carboxylic acid (2-cyclopropyl-1-methyl-ethyl)-amide] | 129 nM
CC(C)NC(=O)c1c[nH]c2ncc(-c3nn(C)c4ccc(C5CC5)cc34)nc12 [Example I-195, 2-(5-Cyclopropyl-1-methyl-1H-indazol-3-yl)-5H-pyrrolo[2,3-b]pyrazine-7-carboxylic acid isopropylamide] | 12 nM
Cn1nc(-c2cnc3[nH]cc(C(=O)NC(C)(C)CO)c3n2)c2cc(C3CC3)ccc21 [Example I-196, 2-(5-Cyclopropyl-1-methyl-1H-indazol-3-yl)-5H-pyrrolo[2,3-b]pyrazine-7-carboxylic acid (2-hydroxy-1,1-dimethyl-ethyl)-amide] | 8 nM
Cn1nc(-c2cnc3[nH]cc(C(=O)NC(C)(C)C)c3n2)c2cc(C3CC3)ccc21 [Example I-197, 2-(5-Cyclopropyl-1-methyl-1H-indazol-3-yl)-5H-pyrrolo[2,3-b]pyrazine-7-carboxylic acid tert-butylamide] | 4.79 nM
Cn1nc(-c2cnc3[nH]cc(C(=O)NC4(CO)CCC4)c3n2)c2ccc(F)cc21 [Example I-256, 2-(6-Fluoro-1-methyl-1H-indazol-3-yl)-5H-pyrrolo[2,3-b]pyrazine-7-carboxylic acid (1-hydroxymethyl-cyclobutyl)-amide] | 23.5 nM
Cn1nc(-c2cnc3[nH]cc(C(=O)NC(C)(C)C)c3n2)c2cc(C#N)ccc21 [Example I-260, 2-(5-Cyano-1-methyl-1H-indazol-3-yl)-5H-pyrrolo[2,3-b]pyrazine-7-carboxylic acid tert-butylamide] | 6.85 nM
CC(C)(C)NC(=O)c1c[nH]c2ncc(-c3nn(C4CCNCC4)c4ccc(OC(F)F)cc34)nc12 [Example I-261, 2-(5-Difluoromethoxy-1-piperidin-4-yl-1H-indazol-3-yl)-5H-pyrrolo[2,3-b]pyrazine-7-carboxylic acid tert-butylamide] | 1.83 nM
CC(C)(C)NC(=O)c1c[nH]c2ncc(-c3nn(CCCC(=O)O)c4ccc(OC(F)F)cc34)nc12 [Example I-262, 4-[3-(7-tert-Butylcarbamoyl-5H-pyrrolo[2,3-b]pyrazin-2-yl)-5-difluoromethoxy-indazol-1-yl]-butyric acid] | 2.75 nM
CC(C)(C)NC(=O)c1c[nH]c2ncc(-c3nn(Cc4cccnc4)c4ccc(OC(F)F)cc34)nc12 [Example I-264, 2-(5-Difluoromethoxy-1-pyridin-3-ylmethyl-1H-indazol-3-yl)-5H-pyrrolo[2,3-b]pyrazine-7-carboxylic acid tert-butylamide] | 4.67 nM
NC1CCC(NC(=O)c2c[nH]c3ncc(-c4nn(C5CCNCC5)c5cc(F)ccc45)nc23)C1 (centres unmarked) [Example I-267, 2-(6-Fluoro-1-piperidin-4-yl-1H-indazol-3-yl)-5H-pyrrolo[2,3-b]pyrazine-7-carboxylic acid (3-amino-cyclopentyl)-amide] | 30.3 nM

Results, then the compound that gave them:

IC50 | Structure (SMILES)
16.4 nM | Cn1nc(-c2cnc3[nH]cc(C(=O)N[C@@H]4CCC[C@@H](N)C4)c3n2)c2ccc(Cl)cc21 (relative stereo) [Example I-276, 2-(6-Chloro-1-methyl-1H-indazol-3-yl)-5H-pyrrolo[2,3-b]pyrazine-7-carboxylic acid (trans-3-amino-cyclohexyl)-amide]
45.7 nM | C[C@@H](NC(=O)c1c[nH]c2ncc(-c3nn(C)c4cc(C#N)ccc34)nc12)C(=O)N1CC(C#N)C1 [Example I-22, 2-(6-Cyano-1-methyl-1H-indazol-3-yl)-5H-pyrrolo[2,3-b]pyrazine-7-carboxylic acid [(R)-2-(3-cyano-azetidin-1-yl)-1-methyl-2-oxo-ethyl]-amide]
11.9 nM | COC[C@H](C)NC(=O)c1c[nH]c2ncc(-c3nn(C)c4ccc(C5CC5)cc34)nc12 [Example I-194, 2-(5-Cyclopropyl-1-methyl-1H-indazol-3-yl)-5H-pyrrolo[2,3-b]pyrazine-7-carboxylic acid ((S)-2-methoxy-1-methyl-ethyl)-amide]
14.3 nM | CC(C)(C)NC(=O)c1c[nH]c2ncc(-c3nn(CC(=O)N4CCOCC4)c4cc(F)ccc34)nc12 [Example I-251, 2-[6-Fluoro-1-(2-morpholin-4-yl-2-oxo-ethyl)-1H-indazol-3-yl]-5H-pyrrolo[2,3-b]pyrazine-7-carboxylic acid tert-butylamide]
607 nM | Cn1nc(-c2cnc3[nH]cc(C(=O)NC4(C(C)(C)O)CCC4)c3n2)c2ccc(F)cc21 [Example I-255, 2-(6-Fluoro-1-methyl-1H-indazol-3-yl)-5H-pyrrolo[2,3-b]pyrazine-7-carboxylic acid [1-(1-hydroxy-1-methyl-ethyl)-cyclobutyl]-amide]
24.6 nM | CC(C)(C)NC(=O)c1c[nH]c2ncc(-c3nn(C4CCNC4)c4cc(F)ccc34)nc12 (centres unmarked) [Example I-258, 2-(6-Fluoro-1-pyrrolidin-3-yl-1H-indazol-3-yl)-5H-pyrrolo[2,3-b]pyrazine-7-carboxylic acid tert-butylamide]
42.9 nM | Cn1nc(-c2cnc3[nH]cc(C(=O)NC(C)(C)C)c3n2)c2ncccc21 [Example I-259, 2-(1-Methyl-1H-pyrazolo[4,3-b]pyridin-3-yl)-5H-pyrrolo[2,3-b]pyrazine-7-carboxylic acid tert-butylamide]
14.4 nM | CN1CCC(n2nc(-c3cnc4[nH]cc(C(=O)NC(C)(C)C)c4n3)c3cc(OC(F)F)ccc32)CC1 [Example I-263, 2-[5-Difluoromethoxy-1-(1-methyl-piperidin-4-yl)-1H-indazol-3-yl]-5H-pyrrolo[2,3-b]pyrazine-7-carboxylic acid tert-butylamide]
8.62 nM | CC(C)(C)NC(=O)c1c[nH]c2ncc(-c3nn(CC4CCNC4)c4ccc(OC(F)F)cc34)nc12 (centres unmarked) [Example I-265, 2-(5-Difluoromethoxy-1-pyrrolidin-3-ylmethyl-1H-indazol-3-yl)-5H-pyrrolo[2,3-b]pyrazine-7-carboxylic acid tert-butylamide]
